Experimental findings from patent publication US6632794B1, “Insulin-like growth factor agonist molecules” (Genentech, Inc., priority 1997, dated 2003) are described below.

Test [1] has as its system male Wistar rats. In words: IV injection into conscious normal rats, plasma glucose and insulin. Type of test: in vivo, rat. Conditions: 100 μg IV; for fall in blood glucose / plasma insulin response: after 10 mins. The method, then:
Seven week old male Wistar rats (240-250 g, Charles Rivers Laboratories, Hollister, Calif.) were anesthetized with KETAMINE/XYLAZINE™ anesthesia and the right jugular vein was cannulated with a silicone rubber cannula that was developed for chronic blood sampling. Clark et al., J. Endocrinol., 111: 27-35 (1986). Following a two- to three-day recovery period, two basal blood samples were taken at −10 and −5 minutes, the test substances administered to the rats by IV injection, and then blood samples collected after 5, 10, 20, 30, 45, 60, and 120 minutes, and the plasma was immediately separated by centrifugation. The glucose and insulin concentrations were subsequently determined either by a coupled hexokinase procedure using a Chem 1A serum chemistry analyzer or, in the later case, a rat insulin RIA kit (Linco Research, Inc., St. Charles, Mo.).
Statistical comparisons were made by an analysis of variance (ANOVA) with a Duncan's Multiple Range test. A p value of <0.05 was considered as being statistically significant. All data are represented as the mean±SEM.
Two treatment groups, with five rats per group, were dosed IV with either (Leu^24,Ala^31)hIGF-I (100 μg) or PBS.
The rats in three treatment groups, with 4-5 rats per group, were dosed IV with either (Leu^24,Ala^31)hIGF-I (100 μg) or rhIGF-I (100 μg) and a control group was given PBS.

The subject of test [2] is Zucker Diabetic Fatty rats. In words: IV bolus injection into diabetic rats, plasma glucose and insulin. Format: in vivo, rat. Conditions: ZDF rats, 100 μg IV; for fall in blood glucose: after 10 minutes. The procedure: Eighteen 7-week-old male Zucker Diabetic Fatty rats (250-300 g, Genetic Models Inc.) were anesthetized using KETAMINE™ (62.5 mg/kg)/ROMPUN XYLAZINE™ (12.5 mg/kg) anesthesia. The right jugular vein was cannulated using a silicone rubber catheter and the rats were allowed to recover.
Two days after surgery the rats (5-6/group) were divided into three treatment groups and given IV via the jugular catheter 200 μl of:
Three days later, using the same rats the study was repeated. The rats that were dosed with IGF-I in the initial study received the IGF mutant in the repeat study and vice versa. Control animals received PBS in both experiments.
Two blood samples were collected from each rat via the jugular cannula prior to IV dosing with the hormones and then blood samples were collected after 10, 30, 60, and 120 minutes. The plasma was immediately separated by centrifugation. The glucose concentration was measured by a coupled hexokinase procedure using a Chem 1A serum chemistry analyzer. Insulin concentration was measured using a rat insulin RIA kit (Linco Research, Inc., St. Charles, Mo.).
Statistical comparisons for each time point were made by an ANOVA with a Duncan's Multiple Range test. A p value of <0.05 was considered as being statistically significant. All data are represented as the mean±SEM, with five or six animals per treatment group.

In test [3] the test system is dwarf rats. Description: Long-term administration to GH-deficient dwarf (dw/dw) rats. Conditions: for retroperitoneal fat depot weight: at sacrifice; for AST / BUN / CK / Creatinine / Glucose / Insulin: serum at sacrifice, Means ± SEM. Type of test: in vivo, rat. From the text: Young female dwarf rats (11-12 wk of age, 115-140 g) were bred by homozygous mating (Charles Rivers Laboratories) and delivered to the Genentech Animal House where they were housed five per cage on polystyrene chips and fed a standard animal chow and water ad libitum, and kept in a room of constant humidity and with controlled temperature and lighting. The animals were weighed, and based on uniformity of body weight, 37 of the animals were selected and randomized into treatment groups and cages to give six treatment groups of equal initial body weights (approximately 120 g).
The study consisted of six groups of rats with six or seven rats per group.
The mutant (Leu^24,Ala^31)hIGF-I and native sequence recombinant human IGF-I were administered by osmotic minipumps (ALZET 2001™, Alza, Palo Alto, Calif.) which were placed in a subcutaneous tunnel in the dorsal neck region while the rats were anesthetized with KETAMINE/XYLAZINE™ anesthesia. The pumps were filled with solutions so that the calculated daily dose was 120 μg per rat per day (1 mg/kg/day), assuming that the pump delivered as per the manufacturer's description (24 μl of solution per day).
Recombinant human GH (50 μg/day) was administered for eight days by twice daily sc injection, with each injection being of 25 μg in a volume of 100 μl.
Body weights were measured daily in the morning. After 8 days the animals were anesthetized using CO2 and exsanguinated by cardiac puncture. The remaining blood was allowed to clot and serum was separated and stored for further analysis.
Spleen, thymus, heart, liver, kidney, and perirenal fat were removed and weighed. The tibia was removed and fixed in neutral buffered formalin for histological measurement of epiphyseal plate width.
Serum chemistries were measured using a TECHNICON CHEM I PLUS™ analyzer. Serum insulin concentration was measured using an RIA kit supplied by Linco, Inc. To measure the IGF-I concentrations the serum was extracted using acid ethanol and the supernatant diluted to neutrality and assayed for IGF-I by RIA. The concentration of rat IGF-I in serum extract was measured by RIA using a kit from Diagnostic Systems Laboratories, Inc. Human IGF-I concentration was measured by RIA at Genentech, Inc.
Tibia were sectioned longitudinally, stained with TOLULENE BLUE™ stain and mounted on microscope slides. The tibial epiphyseal plate width was measured using an ocular micrometer attached to a microscope.
Data were analyzed statistically by analysis of variance using one-factor ANOVA followed by Duncan's Range Test.

Test [4] has as its system mouse 3T3 cells. Description: ^3H-thymidine incorporation into mouse 3T3 cells. Format: cell-based. The procedure: Assay 2: Increase in Cell Number of Mouse 3T3 Cells
The activity of the IGF mutant was also measured in a bioassay for the activity of IGF-I on DNA synthesis and cell replication. In this assay mouse 3T3 cells are cultured, and the IGF mutant or IGF-I is added, followed by tritiated ^3H-thymidine. The amount of ^3H-thymidine incorporated is a measure of the replication of DNA and thus of cell replication.
Background: Incorporation of labelled thymidine or its analogues reports DNA synthesis.

[5] abbreviates: Day one, 120 μg/day each by pump.

Where only a bound is given, the exact number is not on record here.

As to (Leu^24,Ala^31)hIGF-I, in test [1] (Study One), the “plasma insulin levels, % of that of the control group” value was found to be 25%; the “time plasma insulin remained depressed” value worked out at 60 min; the “fall in blood glucose” value is recorded as “brief but statistically significant”. For the same substance, in test [1] (Study Two), the “time plasma insulin remained depressed” value is at least 120 min; the “fall in blood glucose” value is given as “small but statistically significant fall in blood glucose”; the plasma insulin response result was “fall in insulin concentrations of a similar magnitude and degree of statistical significance”. In test [2] (Study One), the plasma insulin response result is given as “suppressed blood insulin concentrations” and the “fall in blood glucose” value is “smaller, but statistically significant”. Also, in test [3] (8 days), the “blood levels of endogenous rat IGF-I” value was “lower”; the epiphyseal plate widths entry is “increased the mean plate widths compared to the individual treatments, but these increases did not reach statistical significance”; the AST stood at 143 ± 8 U/l; the BUN came out at 17.8 ± 0.4 mg/dL. For the same substance, in test [3] (8 days), the CK turned out to be 301 ± 44 u/l, the Creatinine came to 0.23 ± 0.03 mg/dL, the Glucose came to 174 ± 18 mg/dL and the Insulin is 0.88 ± 0.09 ng/mL. For the same substance, in test [3] (8 days, 120 μg/day by pump), the absolute spleen weight worked out at 350 ± 14 mg. In test [3] (setting [5]), this substance returned a body weight gain of 0.5 ± 0.6 g. Further, the “retroperitoneal fat depot weight” value in test [3] (120 μg/day each by pump) stood at 0.53 ± 0.10 g. Besides, the body weight gain in test [3] (day 6, 120 μg/day by pump) is 4.2 ± 0.6 g. The “^3H-thymidine incorporation” value in test [4] is listed as “no activity”.

“IGF-I: native-sequence recombinant human insulin-like growth factor-I (Genentech)”: in test [1] (Study Two), the “time plasma insulin remained depressed” value came to 120 min, the “fall in blood glucose” value was “brief but statistically significant fall in blood glucose” and the plasma insulin response entry is “decreased significantly”. Moreover, in test [2] (Study One), the plasma insulin response result was “large, and maintained fall in plasma insulin”; the “fall in blood glucose” value was “immediate, moderate, and statistically significant”. In test [2] (Study Two), the plasma insulin response entry is “large, and maintained fall in plasma insulin”; the “fall in blood glucose” value was “immediate, moderate, and statistically significant”. Moreover, in test [3] (8 days), the epiphyseal plate widths result was “significantly (p<0.05) increased”, the AST was found to be 128 ± 11 U/l, the BUN was found to be 16.0 ± 0.7 mg/dL and the CK worked out at 225 ± 18 u/l. In addition, in test [3] (8 days), the Creatinine came out at 0.22 ± 0.05 mg/dL, the Glucose worked out at 190 ± 24 mg/dL and the Insulin stood at 0.54 ± 0.06 ng/mL. This substance also yielded a body weight gain in test [3] (setting [5]) of 1.2 ± 0.4 g. Moreover, the “retroperitoneal fat depot weight” value in test [3] (120 μg/day each by pump) was 0.48 ± 0.06 g. In test [4], the “^3H-thymidine incorporation” value is recorded as “increased thymidine incorporation in a dose-related manner”.
